# Measurements reported in patent publication US6506936B1, “N-substituted arylsulfonylamino hydroxamic acids useful as inhibitors of c-proteinase and for treating or preventing disorders related to unregulated collagen production” (FibroGen, Inc., priority 1999, dated 2003).
# Molecular target: T1, recombinant human C-proteinase (Homo sapiens, UniProt P13497)
# T1 sequence (P13497 121-986): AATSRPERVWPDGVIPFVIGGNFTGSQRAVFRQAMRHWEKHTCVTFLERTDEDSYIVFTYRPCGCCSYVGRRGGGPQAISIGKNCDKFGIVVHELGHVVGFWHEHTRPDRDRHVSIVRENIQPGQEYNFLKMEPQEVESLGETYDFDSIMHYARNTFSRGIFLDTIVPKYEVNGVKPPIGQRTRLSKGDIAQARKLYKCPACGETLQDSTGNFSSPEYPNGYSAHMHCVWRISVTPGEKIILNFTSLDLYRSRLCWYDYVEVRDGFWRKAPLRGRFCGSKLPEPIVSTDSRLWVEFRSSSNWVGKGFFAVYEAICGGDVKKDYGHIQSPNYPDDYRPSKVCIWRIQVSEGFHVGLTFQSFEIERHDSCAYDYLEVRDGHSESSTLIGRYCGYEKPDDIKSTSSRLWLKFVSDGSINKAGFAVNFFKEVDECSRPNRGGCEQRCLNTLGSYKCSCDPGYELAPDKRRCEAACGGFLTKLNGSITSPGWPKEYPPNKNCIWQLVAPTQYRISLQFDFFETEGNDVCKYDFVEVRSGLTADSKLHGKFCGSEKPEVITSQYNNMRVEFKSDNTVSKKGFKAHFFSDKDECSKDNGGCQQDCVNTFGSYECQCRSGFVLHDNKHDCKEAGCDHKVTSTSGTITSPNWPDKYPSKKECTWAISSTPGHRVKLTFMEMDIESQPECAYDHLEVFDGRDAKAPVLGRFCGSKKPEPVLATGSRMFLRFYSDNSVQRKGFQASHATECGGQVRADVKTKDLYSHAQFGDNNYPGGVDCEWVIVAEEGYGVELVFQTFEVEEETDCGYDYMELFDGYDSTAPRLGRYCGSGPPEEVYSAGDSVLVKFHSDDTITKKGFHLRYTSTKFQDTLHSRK
# Test: C-proteinase IC50 assay with fluorogenic peptide
# Type: biochemical
# Settings: not given
# Experimental: The reaction was started with the addition of 20 μl of the recombinant human C-proteinase mix. The reaction proceeded for 4 hours at 37° C. and the fluorescence was measured using a Bio-Tek Fl-600.
row,IC50 [µM],SMILES
1,8,COc1ccc(S(=O)(=O)N(CCC(=O)NO)CCc2ccccn2)cc1 [compound 1132]

# Same assay, conditions: IC50 (μM) Of Various C-Proteinase Inhibitors
row,SMILES,IC50 [µM]
1,COc1ccc(S(=O)(=O)N(CCC(=O)NO)Cc2ccccc2)cc1 [compound 121],9
2,COc1ccc(S(=O)(=O)N(CCC(=O)NO)CCN2CCOCC2)cc1 [compound 1131],80.5
3,COc1ccc(S(=O)(=O)N(CCc2ccccc2)CC(=O)NO)cc1 [compound 128],15.3
4,COc1ccc(CCN(CCC(=O)NO)S(=O)(=O)c2cccc(/C(N)=N/O)c2)cc1 [compound 1456],0.4

# Second part, the molecule after the results:
row,IC50 [µM],SMILES
1,1.68,COc1ccc(N(CCC(=O)NO)S(=O)(=O)c2ccc(OC)cc2)cc1 [compound 208]
2,2,COc1ccc(S(=O)(=O)N(CCC(=O)NO)c2ccccc2)cc1 [compound 124]

# Same assay, conditions: IC50 of Cpase
row,IC50 [µM],SMILES
1,1.68,COc1ccc(N(CCC(=O)NO)S(=O)(=O)c2ccc(OC)cc2)cc1 [compound 208]

# Same assay, conditions: recombinant human C-proteinase, 50 μM fluorogenic peptide, 4 hours at 37° C.; read-out: IC50 (μM) Of Various C-Proteinase Inhibitors
row,SMILES,IC50 [µM]
1,CCCCOc1ccc(S(=O)(=O)N(CCC(=O)NO)Cc2ccc3c(c2)OCO3)cc1 [compound 1372],1.7
2,O=C(CCN(CCc1ccccc1)S(=O)(=O)c1cccs1)NO [compound 1270],1.21
3,CC(=O)Nc1ccc(S(=O)(=O)N(CCC(=O)NO)Cc2ccc3c(c2)OCO3)cc1 [compound 1357],0.55
4,O=C(CCN(CCc1ccccc1)S(=O)(=O)c1ccc([N+](=O)[O-])cc1)NO [compound 1268],3.03
5,O=C(CCN(CCc1cccs1)S(=O)(=O)c1ccc(S(=O)(=O)c2ccccc2)s1)NO [compound 1419],3.95
6,O=C(CCN(CCc1cccs1)S(=O)(=O)c1ccc(Br)s1)NO [compound 1417],1.67
7,N/C(=N\O)c1cccc(S(=O)(=O)N(CCC(=O)NO)Cc2ccc3c(c2)OCO3)c1 [compound 1458],0.25
8,COc1ccc(CCN(CCC(=O)NO)S(=O)(=O)c2cccc(N)c2)cc1 [compound 1492],0.32
9,O=C(CCN(Cc1ccc2c(c1)OCO2)S(=O)(=O)c1ccc(S(=O)(=O)c2ccccc2)s1)NO [compound 1361],0.88

# The next lines start with the values.
row,IC50 [µM],SMILES
1,2.43,COc1ccc(S(=O)(=O)N(CCC(=O)NO)CCc2ccc(Cl)cc2)cc1 [compound 1300]
2,0.7,CS(=O)(=O)c1ccc(S(=O)(=O)N(CCC(=O)NO)CCc2cccs2)cc1 [compound 1463]
3,0.23,N/C(=N\O)c1ccc(S(=O)(=O)N(CCC(=O)NO)Cc2ccc3c(c2)OCO3)cc1 [compound 1369]
4,0.84,N/C(=N\O)c1cccc(S(=O)(=O)N(CCC(=O)NO)CCc2cccs2)c1 [compound 1457]
5,1.32,O=C(CCN(CCc1cccs1)S(=O)(=O)c1cccs1)NO [compound 1425]
6,1.77,COc1ccc(S(=O)(=O)N(CCC(=O)NO)Cc2ccc3c(c2)OCO3)cc1OC [compound 1410]
7,1.51,O=C(CCN(Cc1ccc2c(c1)OCO2)S(=O)(=O)c1cccc2nsnc12)NO [compound 1362]
8,3.5,O=C(CCN(CCc1cccs1)S(=O)(=O)Cc1ccccc1)NO [compound 1414]
9,1.47,O=C(CCN(Cc1ccc2c(c1)OCO2)S(=O)(=O)c1ccc(Br)s1)NO [compound 1367]
10,22.1,COc1ccc(CCN(CC(=O)NO)S(=O)(=O)c2ccc(OC)cc2)cc1 [compound 204]
11,0.35,CS(=O)(=O)c1ccc(S(=O)(=O)N(CCC(=O)NO)Cc2ccc3c(c2)OCO3)cc1 [compound 1464]
12,0.25,COc1ccc(CCN(CCC(=O)NO)S(=O)(=O)c2ccc(-c3nnn[nH]3)cc2)cc1 [compound 1496]
13,0.91,O=C(CCN(Cc1ccc2c(c1)OCO2)S(=O)(=O)c1cccs1)NO [compound 1371]
14,3.57,COc1ccc(S(=O)(=O)N(CCC(=O)NO)Cc2ccc(Cl)cc2)cc1 [compound 1237]
15,0.82,CCCCOc1ccc(S(=O)(=O)N(CCC(=O)NO)CCc2cccs2)cc1 [compound 1416]
16,36.5,COc1ccc(S(=O)(=O)N(CCC(=O)NO)C2C3CC4CC(C3)CC2C4)cc1 (centres unmarked) [compound 1335]
17,0.63,COc1ccc(S(=O)(=O)N(CCC(=O)NO)Cc2ccc3c(c2)OCO3)cc1 [compound 1273]
18,0.39,CC(=O)Nc1ccc(S(=O)(=O)N(CCC(=O)NO)CCc2cccs2)cc1 [compound 1411]
19,0.18,N/C(=N\O)c1ccc(S(=O)(=O)N(CCC(=O)NO)CCc2cccs2)cc1 [compound 1409]
20,1.46,COc1ccccc1CCN(CCC(=O)NO)S(=O)(=O)c1ccc(C(=O)O)cc1 [compound 1405]

# System: human foreskin fibroblasts
# Test: Cytotoxicity: metabolic activity (WST-1) of quiescent fibroblasts exposed to inhibitor
# Type: cell-based
# Settings: 25 μM compound, 0.5% DMSO, 48 hours, 60% or below = very sick or dead
# Experimental: C-proteinase inhibitors were studied in cytotoxicity assays wherein quiescent cells were exposed to C-proteinase inhibitors for a given time and cell viability measured. By examining cellular metabolic activity, cell viability and cell survival were determined.
# C-proteinase inhibitors were tested on human foreskin fibroblasts that had been grown to confluence in 96 well microtiter plates in Dulbecco's Modified Eagle Medium (DMEM) containing 10% fetal calf serum. Shortly before adding the inhibitors, the media was removed and 90 μl per microtiter well of fresh serum-free DMEM was added to the cells. The C-proteinase inhibitors were made up as concentrated stocks containing compound at 250 μM in the presence of 5% DMSO as solvent. A concentrated stock of 10 μl was added to each microtiter well to give a final compound concentration of 25 μM in the presence of 0.5% DMSO. The cells were incubated in the presence of the C-proteinase inhibitor for 48 hours, and then cell viability and survival were measured as a function of metabolic activity. To examine cellular metabolic activity, 10 μl of WST-1 reagent (Boehringer Mannheim) was added to each well of a 96 well microtiter plate containing quiescent cells that were already in media. The plate was incubated at 37° C. for 120 minutes and removed. The absorbance at 450 nm-650 nm was recorded. […] Controls included untreated healthy cells, and cells killed with 0.1% saponin.
# Cytotoxicity was evaluated as a function of cellular survival. Cellular survival was determined by measuring the metabolic activity of the quiescent cells after exposure to the C-proteinase inhibitors. To determine the metabolic activity of the cells, the color change of a trazolium dye over time was examined according to Mossmann, […], Immunol. Methods 65:66; Carmichael, 1987, Cancer Res 47:936, incorporated herein by reference. Healthy cells cleaved the dye producing a colored product that can be quantitated. […] Dead cells had no metabolic activity and no effect on the dye was shown.
# The amount of dye cleaved by cells that had been incubated with inhibitor, expressed as a percentage relative to untreated cells, is shown in TABLE 2. Cells that register at 60% or below are considered either very sick or dead. Control cells that were intentionally killed give a value of close to 20%.
row,SMILES,Percent Metabolic Activity of Fibroblasts Exposed To Various C-Proteinase Inhibitors Relative to Untreated Fibroblasts [%]
1,N/C(=N\O)c1cccc(S(=O)(=O)N(CCC(=O)NO)Cc2ccc3c(c2)OCO3)c1 [Compound 1458],111.0
2,COc1ccc(S(=O)(=O)N(CCC(=O)NO)CC2COc3ccccc3O2)cc1 (centres unmarked) [Compound 1374],117.6
3,COc1ccccc1CCN(CCC(=O)NO)S(=O)(=O)c1ccc(C(=O)O)cc1 [Compound 1405],114.5
4,N/C(=N\O)c1ccc(S(=O)(=O)N(CCC(=O)NO)Cc2ccc3c(c2)OCO3)cc1 [Compound 1369],117.1
5,CCCCOc1ccc(S(=O)(=O)N(CCC(=O)NO)CCc2cccs2)cc1 [Compound 1416],92.8
6,COc1ccc(S(=O)(=O)N(CCC(=O)NO)CCc2ccc(Cl)cc2)cc1 [Compound 1300],109.9
7,O=C(CCN(Cc1ccc2c(c1)OCO2)S(=O)(=O)c1cccs1)NO [Compound 1371],114.4
8,O=C(CCN(CCc1cccs1)S(=O)(=O)c1cccs1)NO [Compound 1425],109.5
9,CC(=O)Nc1ccc(S(=O)(=O)N(CCC(=O)NO)CCc2cccs2)cc1 [Compound 1411],108.2
10,O=C(CCN(CCc1cccs1)S(=O)(=O)c1ccc(S(=O)(=O)c2ccccc2)s1)NO [Compound 1419],104.7
11,O=C(CCN(CCc1cccs1)S(=O)(=O)c1ccc(Br)s1)NO [Compound 1417],120.3
12,O=C(CCN(Cc1ccc2c(c1)OCO2)S(=O)(=O)c1ccc(Br)s1)NO [Compound 1367],114.5
13,COc1ccc(S(=O)(=O)N(CCC(=O)NO)Cc2ccc3c(c2)OCO3)cc1OC [Compound 1410],108.6
14,O=C(CCN(CCc1cccs1)S(=O)(=O)Cc1ccccc1)NO [Compound 1414],112.6
15,CCCCOc1ccc(S(=O)(=O)N(CCC(=O)NO)Cc2ccc3c(c2)OCO3)cc1 [Compound 1372],109.2
16,COc1ccc(S(=O)(=O)N(CCC(=O)NO)C2C3CC4CC(C3)CC2C4)cc1 (centres unmarked) [Compound 1335],113.3
